For five compounds, inhibition results are on record in patent US20250120967A1, “TYROSINE KINASES INHIBITORS AND USES THEREOF” (GREAT NOVEL THERAPEUTICS BIOTECH & MEDICALS CORPORATION, priority 2023, published 2025).

Assay in all cases: Tyrosine kinase inhibition assay
What all share (type): biochemical
Holding throughout (settings): single concentration 1.0 μM, read-out: percent inhibition

For test [1], the target named is AKT3 (PKB gamma) (Homo sapiens, UniProt Q9Y243). In short, it runs like this: (§1)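 Kinase activity was measured by Z′-LYTE peptide assay with ATP at the apparent Km, in kinase buffer (50 mM HEPES pH 7.5, 0.01% BRIJ-35, 10 mM MgCl2, 1 mM EGTA) with 1% DMSO final. Compounds were tested at a single 1.0 μM concentration and reported as percent inhibition; >80% counted as a hit.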
Sequence of AKT3 (PKB gamma) (Q9Y243 whole entry): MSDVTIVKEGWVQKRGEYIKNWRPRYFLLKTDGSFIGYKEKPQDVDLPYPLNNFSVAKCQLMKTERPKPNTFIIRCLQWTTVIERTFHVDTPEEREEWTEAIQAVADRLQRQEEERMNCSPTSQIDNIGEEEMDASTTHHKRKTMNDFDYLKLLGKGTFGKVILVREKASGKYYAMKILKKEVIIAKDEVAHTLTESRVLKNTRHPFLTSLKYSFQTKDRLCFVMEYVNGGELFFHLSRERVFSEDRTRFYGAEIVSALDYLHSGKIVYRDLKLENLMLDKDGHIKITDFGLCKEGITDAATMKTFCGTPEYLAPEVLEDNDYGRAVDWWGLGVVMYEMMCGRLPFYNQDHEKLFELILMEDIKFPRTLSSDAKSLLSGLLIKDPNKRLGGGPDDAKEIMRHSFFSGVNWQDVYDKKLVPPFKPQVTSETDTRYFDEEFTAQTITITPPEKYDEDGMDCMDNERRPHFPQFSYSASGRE

In test [2] the target is T1, AURKA (Aurora A) (Homo sapiens, UniProt O14965).
T1 sequence (O14965 1-403): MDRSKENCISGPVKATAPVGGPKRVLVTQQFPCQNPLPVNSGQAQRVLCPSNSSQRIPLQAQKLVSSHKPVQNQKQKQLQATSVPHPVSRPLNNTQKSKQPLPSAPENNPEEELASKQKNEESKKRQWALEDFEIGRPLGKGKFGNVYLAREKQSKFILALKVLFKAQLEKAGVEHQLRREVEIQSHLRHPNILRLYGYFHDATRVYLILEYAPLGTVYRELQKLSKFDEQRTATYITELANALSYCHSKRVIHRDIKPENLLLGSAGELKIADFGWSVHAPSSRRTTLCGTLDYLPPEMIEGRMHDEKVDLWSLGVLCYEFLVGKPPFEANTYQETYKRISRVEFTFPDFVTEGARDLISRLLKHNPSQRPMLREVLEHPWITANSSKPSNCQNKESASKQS
In short, it runs like this: as §1

Test [3] has as its target T2, EPHB4 (Homo sapiens, UniProt P54760).
T2 sequence (P54760 16-987): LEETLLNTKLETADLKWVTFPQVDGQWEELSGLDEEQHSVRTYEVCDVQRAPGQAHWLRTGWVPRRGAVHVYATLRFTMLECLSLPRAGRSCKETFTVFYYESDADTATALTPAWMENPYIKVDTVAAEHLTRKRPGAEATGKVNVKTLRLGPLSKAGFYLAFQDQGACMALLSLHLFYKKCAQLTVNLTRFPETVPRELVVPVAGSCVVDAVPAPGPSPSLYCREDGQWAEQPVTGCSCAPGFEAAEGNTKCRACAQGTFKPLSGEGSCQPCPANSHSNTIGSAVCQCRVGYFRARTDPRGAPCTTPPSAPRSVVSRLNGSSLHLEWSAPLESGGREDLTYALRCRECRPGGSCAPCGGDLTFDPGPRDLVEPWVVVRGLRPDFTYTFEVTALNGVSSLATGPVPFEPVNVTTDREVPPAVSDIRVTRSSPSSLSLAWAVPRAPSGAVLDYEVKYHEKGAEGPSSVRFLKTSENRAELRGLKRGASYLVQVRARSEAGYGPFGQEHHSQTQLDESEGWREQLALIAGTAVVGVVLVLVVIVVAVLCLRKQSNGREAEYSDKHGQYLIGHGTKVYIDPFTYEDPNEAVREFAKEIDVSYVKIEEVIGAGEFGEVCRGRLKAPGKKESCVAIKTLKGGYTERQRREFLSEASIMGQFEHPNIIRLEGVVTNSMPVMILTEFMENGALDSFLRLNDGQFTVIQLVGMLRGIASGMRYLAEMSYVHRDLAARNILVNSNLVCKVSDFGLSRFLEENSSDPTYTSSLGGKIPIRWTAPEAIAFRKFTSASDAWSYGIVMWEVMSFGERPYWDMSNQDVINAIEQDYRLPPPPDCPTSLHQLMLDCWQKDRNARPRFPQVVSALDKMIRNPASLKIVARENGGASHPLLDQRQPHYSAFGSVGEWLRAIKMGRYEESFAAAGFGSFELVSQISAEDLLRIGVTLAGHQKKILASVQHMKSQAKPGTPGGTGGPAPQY
In short, it runs like this: as §1

The target of test [4] is FES (FPS) (Homo sapiens, UniProt P07332). In short, it runs like this: as §1
For test [5], the target named is FGFR1 (Homo sapiens, UniProt P11362). In short, it runs like this: as §1
Test [6] addresses JAK1 (Homo sapiens, UniProt P23458). In a few lines:
as §1

In test [7] the target is LTK (TYK1) (Homo sapiens, UniProt P29376). In a few lines: as §1
Sequence of LTK (TYK1) (P29376 17-864): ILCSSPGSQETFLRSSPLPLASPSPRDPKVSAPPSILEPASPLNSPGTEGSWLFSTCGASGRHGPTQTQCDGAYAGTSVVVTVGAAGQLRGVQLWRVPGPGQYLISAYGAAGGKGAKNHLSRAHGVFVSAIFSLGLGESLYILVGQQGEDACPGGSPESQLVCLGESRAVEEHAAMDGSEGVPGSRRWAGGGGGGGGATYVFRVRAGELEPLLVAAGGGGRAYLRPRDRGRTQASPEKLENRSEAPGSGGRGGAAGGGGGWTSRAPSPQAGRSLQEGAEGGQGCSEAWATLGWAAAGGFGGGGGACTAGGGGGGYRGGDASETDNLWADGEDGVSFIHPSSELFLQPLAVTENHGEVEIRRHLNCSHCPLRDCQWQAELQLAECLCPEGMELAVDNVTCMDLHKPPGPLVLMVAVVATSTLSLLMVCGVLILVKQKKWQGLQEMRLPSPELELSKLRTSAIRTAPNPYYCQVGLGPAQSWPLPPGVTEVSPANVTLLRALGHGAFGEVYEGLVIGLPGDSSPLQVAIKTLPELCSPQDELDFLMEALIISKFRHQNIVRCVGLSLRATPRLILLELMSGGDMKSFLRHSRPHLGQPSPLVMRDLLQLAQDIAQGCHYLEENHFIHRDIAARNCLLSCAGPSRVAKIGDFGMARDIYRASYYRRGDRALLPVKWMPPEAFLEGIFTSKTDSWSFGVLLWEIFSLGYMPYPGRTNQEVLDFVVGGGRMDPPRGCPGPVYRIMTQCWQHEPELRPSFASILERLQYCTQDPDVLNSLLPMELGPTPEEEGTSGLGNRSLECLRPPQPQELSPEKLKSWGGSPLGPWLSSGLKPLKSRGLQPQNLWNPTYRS
For test [8], the target named is MAPK10 (JNK3) (Homo sapiens, UniProt P53779). In short, it runs like this:
as §1

Test [9] addresses NTRK1 (TRKA) (Homo sapiens, UniProt P04629). In a few lines:
as §1

Test [10] concerns the target NTRK3 (TRKC) (Homo sapiens, UniProt Q16288). In a few lines:
as §1

Test [11] deals with PDGFRB (PDGFR beta) (Homo sapiens, UniProt P09619). In short, it runs like this: as §1
Sequence of PDGFRB (PDGFR beta) (P09619 33-1106): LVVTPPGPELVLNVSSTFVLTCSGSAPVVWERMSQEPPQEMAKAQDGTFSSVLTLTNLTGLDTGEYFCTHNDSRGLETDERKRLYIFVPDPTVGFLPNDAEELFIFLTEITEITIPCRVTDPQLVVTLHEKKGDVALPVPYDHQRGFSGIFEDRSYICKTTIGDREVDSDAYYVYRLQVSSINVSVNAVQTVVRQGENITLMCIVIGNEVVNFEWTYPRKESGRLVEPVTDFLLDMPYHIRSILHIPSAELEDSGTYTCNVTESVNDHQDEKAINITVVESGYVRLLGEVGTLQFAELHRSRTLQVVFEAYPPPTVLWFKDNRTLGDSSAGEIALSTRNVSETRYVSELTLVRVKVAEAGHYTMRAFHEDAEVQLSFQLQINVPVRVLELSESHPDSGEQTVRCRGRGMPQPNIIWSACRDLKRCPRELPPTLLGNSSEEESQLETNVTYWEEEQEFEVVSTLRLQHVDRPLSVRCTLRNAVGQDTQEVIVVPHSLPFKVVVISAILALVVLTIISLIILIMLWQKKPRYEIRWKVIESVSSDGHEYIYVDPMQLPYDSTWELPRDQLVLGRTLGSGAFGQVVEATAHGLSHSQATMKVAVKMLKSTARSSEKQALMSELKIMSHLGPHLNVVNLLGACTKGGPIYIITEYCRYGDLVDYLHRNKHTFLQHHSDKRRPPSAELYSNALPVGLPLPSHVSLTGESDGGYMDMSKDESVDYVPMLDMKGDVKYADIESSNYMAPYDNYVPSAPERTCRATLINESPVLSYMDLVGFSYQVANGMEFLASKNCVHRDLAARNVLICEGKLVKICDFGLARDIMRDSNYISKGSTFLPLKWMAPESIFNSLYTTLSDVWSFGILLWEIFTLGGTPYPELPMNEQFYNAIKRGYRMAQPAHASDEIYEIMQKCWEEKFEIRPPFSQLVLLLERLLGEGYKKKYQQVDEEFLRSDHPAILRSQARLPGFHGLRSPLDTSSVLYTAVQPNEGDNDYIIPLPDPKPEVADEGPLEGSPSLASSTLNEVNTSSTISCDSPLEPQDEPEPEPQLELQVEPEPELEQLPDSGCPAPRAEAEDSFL
Test [12] concerns the target PIK3C2A (PI3K-C2 alpha) (Homo sapiens, UniProt O00443). In a few lines:
as §1

The target in test [13] is PIK3C3 (hVPS34) (Homo sapiens, UniProt Q8NEB9). In a few lines: as §1
The target in test [14] is TNK2 (ACK) (Homo sapiens, UniProt Q07912). In a few lines: as §1

Sequence of NTRK3 (TRKC) (Q16288 32-839): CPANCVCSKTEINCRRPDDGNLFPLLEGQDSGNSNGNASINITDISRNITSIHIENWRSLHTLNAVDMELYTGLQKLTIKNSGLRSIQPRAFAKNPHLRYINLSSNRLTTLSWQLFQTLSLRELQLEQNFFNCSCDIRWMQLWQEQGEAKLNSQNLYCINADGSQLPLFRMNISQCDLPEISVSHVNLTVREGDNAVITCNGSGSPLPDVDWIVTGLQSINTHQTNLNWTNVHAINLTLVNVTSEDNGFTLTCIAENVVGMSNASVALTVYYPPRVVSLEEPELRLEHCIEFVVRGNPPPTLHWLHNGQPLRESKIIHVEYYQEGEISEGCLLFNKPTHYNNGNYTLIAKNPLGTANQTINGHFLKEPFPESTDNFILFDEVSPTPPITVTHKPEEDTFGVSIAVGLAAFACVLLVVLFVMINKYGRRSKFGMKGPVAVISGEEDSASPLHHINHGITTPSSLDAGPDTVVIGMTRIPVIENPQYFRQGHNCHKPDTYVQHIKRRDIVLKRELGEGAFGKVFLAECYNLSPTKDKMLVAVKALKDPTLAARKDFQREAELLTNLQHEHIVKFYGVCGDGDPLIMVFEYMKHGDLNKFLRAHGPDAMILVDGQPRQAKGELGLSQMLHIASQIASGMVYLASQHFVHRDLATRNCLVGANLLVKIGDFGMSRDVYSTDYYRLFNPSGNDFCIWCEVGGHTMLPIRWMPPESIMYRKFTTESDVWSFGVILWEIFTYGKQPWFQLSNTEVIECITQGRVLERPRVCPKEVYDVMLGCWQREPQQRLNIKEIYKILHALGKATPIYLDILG
Sequence of JAK1 (P23458 whole entry): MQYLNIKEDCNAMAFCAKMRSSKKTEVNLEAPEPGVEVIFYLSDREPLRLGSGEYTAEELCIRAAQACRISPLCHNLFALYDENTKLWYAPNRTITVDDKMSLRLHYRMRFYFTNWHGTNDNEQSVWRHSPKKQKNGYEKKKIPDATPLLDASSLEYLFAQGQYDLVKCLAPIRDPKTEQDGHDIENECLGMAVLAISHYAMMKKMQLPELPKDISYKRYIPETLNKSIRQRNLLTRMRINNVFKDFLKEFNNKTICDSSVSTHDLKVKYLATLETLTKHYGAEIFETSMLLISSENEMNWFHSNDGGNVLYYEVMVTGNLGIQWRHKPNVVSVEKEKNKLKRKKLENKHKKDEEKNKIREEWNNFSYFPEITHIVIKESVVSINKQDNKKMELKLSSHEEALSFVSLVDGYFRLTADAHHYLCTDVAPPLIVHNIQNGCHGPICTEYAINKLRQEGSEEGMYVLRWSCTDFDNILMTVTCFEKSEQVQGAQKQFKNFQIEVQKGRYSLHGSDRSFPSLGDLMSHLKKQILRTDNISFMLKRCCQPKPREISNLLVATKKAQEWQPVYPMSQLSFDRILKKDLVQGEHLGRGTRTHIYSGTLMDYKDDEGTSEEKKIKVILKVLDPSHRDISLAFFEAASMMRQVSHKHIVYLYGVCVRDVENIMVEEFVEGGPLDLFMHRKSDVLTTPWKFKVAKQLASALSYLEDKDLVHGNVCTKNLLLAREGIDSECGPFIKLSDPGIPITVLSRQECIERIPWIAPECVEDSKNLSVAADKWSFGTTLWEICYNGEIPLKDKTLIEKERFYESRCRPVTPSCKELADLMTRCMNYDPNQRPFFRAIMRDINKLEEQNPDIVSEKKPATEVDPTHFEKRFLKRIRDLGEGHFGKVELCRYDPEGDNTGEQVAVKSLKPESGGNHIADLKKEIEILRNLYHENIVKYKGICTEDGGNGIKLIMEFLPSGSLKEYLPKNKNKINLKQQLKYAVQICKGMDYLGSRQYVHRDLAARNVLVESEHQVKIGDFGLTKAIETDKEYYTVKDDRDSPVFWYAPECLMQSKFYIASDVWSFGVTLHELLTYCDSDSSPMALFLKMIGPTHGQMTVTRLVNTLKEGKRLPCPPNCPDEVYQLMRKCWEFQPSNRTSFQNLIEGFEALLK
Sequence of MAPK10 (JNK3) (P53779 whole entry): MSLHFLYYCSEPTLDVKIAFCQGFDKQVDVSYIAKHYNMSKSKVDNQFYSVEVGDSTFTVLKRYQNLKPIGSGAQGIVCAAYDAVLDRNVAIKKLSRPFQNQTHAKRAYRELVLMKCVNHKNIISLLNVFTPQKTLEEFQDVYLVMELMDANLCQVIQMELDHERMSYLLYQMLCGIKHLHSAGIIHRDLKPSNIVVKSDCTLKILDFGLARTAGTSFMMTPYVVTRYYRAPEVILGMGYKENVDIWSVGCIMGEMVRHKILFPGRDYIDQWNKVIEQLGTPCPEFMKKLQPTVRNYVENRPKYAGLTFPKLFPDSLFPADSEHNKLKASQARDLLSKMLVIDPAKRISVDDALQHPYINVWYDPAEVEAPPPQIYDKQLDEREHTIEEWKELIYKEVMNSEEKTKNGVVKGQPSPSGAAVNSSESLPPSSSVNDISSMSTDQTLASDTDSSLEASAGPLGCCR

In general, inhibition refers to the relative decrease from the control value, in per cent. For `COc1cc2nccc(Oc3ccc(NC(=O)C4(C(=O)Nc5ccc(F)cc5)CC4)cc3)c2cc1OC` [Cabozantinib, reference compound], the inhibition at 1 µM was 8% in test [1]; 55% in [2]; 93% in test [3]; 30% in test [4]; 12% in [5]; 0% in test [6]. Besides, the inhibition at 1 µM in test [7] stood at 20%; in test [8] it was 3%; in test [9] it was 98%; in test [10] it was 97%; in test [11], 73%; in test [12], 1%. Further, the inhibition at 1 µM came to 0% in test [13] and 61% in test [14].
As to `COc1cc2nccc(Oc3ccc(NC(=O)C4(NC(=O)c5ccc(F)cc5)CC4)cc3F)c2cc1OC` [Cbo-02, N-(1-((4-((6,7-diMethoxyquinolin-4-yl)oxy)-3-fluorophenyl)carbamoyl)cyclopropyl)-4-fluorobenzamide], the inhibition at 1 µM worked out at 5% in [1]; 75% in test [2]; 27% in test [3]; 38% in test [4]; 3% in test [5]; 1% in [6]. Also, the inhibition at 1 µM in test [7] is 50%; in test [8], 4%; in [9] it was 58%; in [10] it was 58%; in test [11], 34%; in test [12], 1%. Further, the figures for the inhibition at 1 µM in [13] and in test [14] were 1% and 63%, respectively.
`COc1cc2nccc(Oc3ccc(NC(=O)C4(NC(=O)c5ccc(F)cc5)CC4)cc3F)c2cc1Oc1ccc(N)cc1F` [Cbo-10]: the inhibition at 1 µM in test [1] is 7%; in [2] it was 92%; in [3], 50%; in test [4], 80%; in test [5] it was 1%; in [6] it was 2%. Besides, the inhibition at 1 µM in [7] is 69%; in [8] it was 8%; in [9], 80%; in test [10], 89%; in test [11] it was 52%; in test [12], -1%. Besides, the inhibition at 1 µM was -5% in test [13] and 95% in test [14].
Regarding `COc1cc2nccc(Oc3ccc(NC(=O)C4(NC(=O)c5ccc(F)cc5)CC4)cc3F)c2cc1Oc1c(F)cc(N)cc1F` [Cbo-14], the inhibition at 1 µM in [1] stood at 6%; in test [2], 89%; in test [3] it was 76%; in test [4], 78%; in [5], 5%; in [6] it was 1%. Besides, the inhibition at 1 µM in test [7] was 79%; in test [8], 4%; in test [9], 71%; in test [10] it was 98%; in test [11], 56%; in [12], 1%. The inhibition at 1 µM was 6% in test [13] and 96% in [14].
For the compound `COc1cc2nccc(Oc3ccc(NC(=O)C4(C(=O)Nc5ccc(F)cc5)CC4)cc3F)c2cc1Oc1ccc(N)cc1F` [Cbo-23], the inhibition at 1 µM in test [1] was -1%; in test [2] it was 55%; in test [3], 103%; in test [4], 58%; in test [5], 27%; in test [6], 4%. In addition, the inhibition at 1 µM in test [7] was 55%; in test [8], -3%; in test [9], 97%; in test [10] it was 98%; in test [11], 56%; in [12] it was -9%. Also, the inhibition at 1 µM was -4% in [13] and 89% in test [14].
